The values that follow come from patent publication US9879013B2, “Purinone derivative” (ONO PHARMACEUTICAL CO., LTD., priority 2010, dated 2018).

The target in one data set is LynA (Homo sapiens (Human), UniProt P07948). Nature of the data set: LynA inhibitory activity, selectivity for Btk (Z'-LYTE kinase assay). It counts as biochemical. The conditions noted are these: ratio of the IC50 values of the individual kinases. On the procedure: (§1) The inhibitory activity for other kinases (for example, Lck, Fyn, and LynA (all from Invitrogen Corporation) was measured in the same manner as described above using the particular kinase in place of the Btk.
Chain of LynA (P07948 whole entry): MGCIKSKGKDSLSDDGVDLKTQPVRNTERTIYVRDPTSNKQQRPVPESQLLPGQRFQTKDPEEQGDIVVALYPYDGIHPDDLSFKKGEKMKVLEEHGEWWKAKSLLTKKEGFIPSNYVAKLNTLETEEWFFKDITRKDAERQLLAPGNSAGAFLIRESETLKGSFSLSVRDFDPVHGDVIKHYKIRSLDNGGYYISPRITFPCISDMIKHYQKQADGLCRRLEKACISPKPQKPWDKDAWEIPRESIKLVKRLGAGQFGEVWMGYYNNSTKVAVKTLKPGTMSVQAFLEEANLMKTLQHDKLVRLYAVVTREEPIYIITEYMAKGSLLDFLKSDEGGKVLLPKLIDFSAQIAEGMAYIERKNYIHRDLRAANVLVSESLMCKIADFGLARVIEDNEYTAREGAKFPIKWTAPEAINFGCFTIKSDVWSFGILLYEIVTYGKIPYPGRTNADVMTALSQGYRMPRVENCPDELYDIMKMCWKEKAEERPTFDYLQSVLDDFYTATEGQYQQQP

Another data set addresses Lck (Homo sapiens (Human), UniProt P06239). Description: Lck inhibitory activity, selectivity for Btk (Z'-LYTE kinase assay). The class given is biochemical. The conditions noted are these: ratio of the IC50 values of the individual kinases. Here is the method: as §1
A short description of data set [1]: Stability in the rat liver microsome. The conditions noted are these: 0.5 mg/mL microsomes, NADPH, 15 minutes at 37° C. A general note: Liver microsomes are a subcellular fraction often used to study metabolism.
Procedure: Evaluation of the Stability in the Rat and Human Liver Microsome
A 0.25 mmol/L solution was prepared by diluting the test compound (10 mmol/L DMSO solution, 5 μL) with an aqueous 50% acetonitrile solution (195 μL).
20 μL was collected immediately after the start and the reaction was stopped by the addition to 180 μL of acetonitrile that contained an internal standard (warfarin). 20 μL of this solution was stirred with 180 μL of an aqueous 50% acetonitrile solution on a filter plate for protein depletion followed by suction filtration, and the filtrate was used as the standard sample.
The previously indicated reaction solution was incubated for 15 minutes at 37° C., and 20 μL was then added to 180 μL cold acetonitrile (contained the internal standard warfarin) to stop the reaction. 20 μL of this was stirred with 180 μL of an aqueous 50% acetonitrile solution on a filter plate for protein depletion followed by suction filtration, and the filtrate was used as the standard sample.
Data set [2] concerns T cells (CD3-positive CD20-negative cells) of human PBMC. Nature of the data set: T cell activation using human PBMC (CD69-positive signal, FACS). The class given is cell-based. The conditions noted are these: anti-CD3/CD28 antibody beads, 16 hours. On the procedure: (§2) Measurement of B Cell Activation or T Cell Activation Using Human PBMC
(§3) A 10 mmol/L solution of the test compound in DMSO was dispensed into a 96-well plate (Nunc) and a 5× dilution series was prepared using DMSO. A 100× concentration test compound dilution solution was prepared by an additional 10× dilution with RPMI1640 medium (contained 10% HI-FBS, 1% penicillin). Human peripheral blood mononuclear cells (PBMC) were diluted with the medium to provide a density of 2×10^6 cells/mL. 396 μL of the cell suspension was added to a 96-well plate into which 4 μL of the 100× concentration test compound dilution solution or the solvent (10% DMSO) had already been introduced and incubation was performed for 10 minutes at 37° C. and 5% CO2. 10 μL of an anti-IgM antibody (Southern Biotech)/IL-4 (R & D Systems) solution or an anti-CD3/CD28 antibody bead suspension (Invitrogen Corporation) was added to a 96-well plate and 90 μL of the cell suspension prepared as described above was also added (final concentrations: anti-IgM antibody=1 μg/mL, IL-4=3 ng/mL, and anti-CD3/CD28 antibody beads=2×10^6 beads/mL). 10 μL of the medium was added to the unstimulated sample wells in place of these stimulating substances, and standing at 37° C. and 5% CO2 was again performed. Incubation was carried out for 16 hours in the case of the evaluation of T cell activation and for 22 hours in the case of the evaluation of B cell activation. 100 μL Cytofix Buffer (BD Biosciences) was added; holding for 15 minutes at 37° C. was performed; centrifugation for 10 minutes at 1500 rpm was carried out; and the supernatant was removed. 200 μL of Perm buffer II (BD Biosciences) at −20° C. was added; holding for 30 minutes on ice was performed; centrifugation for 10 minutes at 1500 rpm was carried out; and the supernatant was removed. 0.5 mL Stain buffer (BD Biosciences) was added and centrifugation was carried out for 10 minutes at 1500 rpm. 100 μL of a mixed antibody solution was added and incubation was performed for 30 minutes on ice in the dark. The antibody was the 10× dilution with Stain Buffer of the 1:1:1 mixture of PerCP-labeled anti-CD3 antibody (BD Biosciences), AF488-labeled anti-CD20 antibody (BD Biosciences), and PE-labeled anti-CD69 antibody (BD Biosciences). 0.4 mL Stain Buffer was added and the supernatant was removed. […] The CD69-positive signal (average fluorescence intensity) of the CD20-positive CD3-negative cells (B cells) or CD3-positive CD20-negative cells (T cells) was measured. After subtracting the value for the unstimulated sample, the % inhibition with reference to the value for the stimulated control sample was determined. The % inhibition was graphically plotted using Prism (ver. 5.01 J, GraphPad Software) and the IC50 value was determined.

The target of another data set is Fyn (Homo sapiens (Human), UniProt P06241). Description: Fyn inhibitory activity, selectivity for Btk (Z'-LYTE kinase assay). It counts as biochemical. The conditions noted are these: ratio of the IC50 values of the individual kinases. On the procedure: as §1
Chain of Fyn (P06241 whole entry): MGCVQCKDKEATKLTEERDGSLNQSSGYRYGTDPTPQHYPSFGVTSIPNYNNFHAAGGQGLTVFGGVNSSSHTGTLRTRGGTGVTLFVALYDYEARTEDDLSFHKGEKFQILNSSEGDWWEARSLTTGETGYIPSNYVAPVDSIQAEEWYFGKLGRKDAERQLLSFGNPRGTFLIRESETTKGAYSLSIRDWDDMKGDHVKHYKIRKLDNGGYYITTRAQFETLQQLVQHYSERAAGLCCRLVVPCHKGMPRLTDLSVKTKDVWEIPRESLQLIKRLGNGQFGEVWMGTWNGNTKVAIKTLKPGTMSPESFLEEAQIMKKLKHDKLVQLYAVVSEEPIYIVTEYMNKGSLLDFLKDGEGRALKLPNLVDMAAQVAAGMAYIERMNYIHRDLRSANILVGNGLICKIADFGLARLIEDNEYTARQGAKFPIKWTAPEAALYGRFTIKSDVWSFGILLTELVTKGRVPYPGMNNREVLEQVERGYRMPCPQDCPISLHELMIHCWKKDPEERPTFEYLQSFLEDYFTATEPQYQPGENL
Another data set deals with Human CYP2C8 (Homo sapiens (Human), UniProt P10632). Description: Inhibitory action on human CYP2C8. It counts as in vitro ADME. Here is the method:
Measurement of the Inhibitory Activity on Drug-Metabolizing Enzymes (Inhibitory Action on Human CYP2C8 and Human CYP2C19)
The reaction was carried out in a 96-well plate. […] 100 μL of this reaction mixture and 50 μL of the test compound prepared as described above and the positive control solution prepared as described above were dispensed into each well and pre-incubation was carried out at 10 minutes for 37° C. The reaction was started by the addition of 50 μL NADPH solution (final concentration=1 mmol/L) and incubation was carried out for 30 minutes at 37° C.

Another data set concerns Human liver cells. Description: Ability to reduce the mitochondrial membrane potential in cultured human hepatoma cells (JC-1). The class given is cell-based. The conditions noted are these: JC-1, exposure for 24 hours, read-out: Ability to lower the mitochondrial membrane potential (IC50 (μM)). The source says: Measurement of the Cytotoxicity and Ability to Reduce the Mitochondrial Membrane Potential in Cultured Human Hepatoma Cells
Tissue that maintains an aerobic equilibrium, e.g., the kidneys and heart, and tissue that is exposed to high drug concentrations and carries out drug metabolism, e.g., the liver, are known to be sensitive to mitochondrial dysfunction (Drug Discovery Today, 12 (17-18), 777-785, 2007). The reduction or extinction of the mitochondrial membrane potential by a drug is caused by the direct inhibition of the electron transport system, decoupling of electron transport from ATP synthase, or the opening of a mitochondrial membrane permeability transition pore. As a consequence, measurement of the mitochondrial membrane potential of liver cells can provide a parameter for hepatotoxicity.
Human liver cells were seeded into a collagen-coated 96-well plate at a cell density of 30,000 cells/well and incubation was carried out overnight in an incubator at 37° C. in 5% CO2-95% air. The cultured cells were stained for 1 hour with 5,5′,6,6′-tetrahydro-1,1′,3,3′-tetramethyl-benzamidazolocarbocyanine iodide (JC-1) followed by treatment with the test compound. The test compound was dissolved in DMSO and then diluted with the liquid culture medium Hepatocyte Culture Medium (HCM) and added to the cells. The test compound treatment concentrations were 0, 6.25, 12.5, 25, 50, 100, 200, and 400 μmol/L. After exposure to the test compound for 24 hours, measurement was performed with a SpectraMax plate reader (Molecular Devices, LLC) at an excitation wavelength of 485 nm and a fluorescence wavelength of 538 nm and an excitation wavelength of 544 nm and a fluorescence wavelength of 590 nm. The membrane potential was determined by the ratio between the 544 nm/590 nm measurement value and the 485 nm/538 nm measurement value. After this, the ATP concentration in the cells was measured using a Celltiter Glo luminescent assay kit (Promega Corporation) in order to evaluate the cell toxicity of the test compound. The cells were lysed by the assay buffer provided with the measurement kit and the concentration of the ATP released from the cells was measured using the luciferin-luciferase enzyme activity as the index. The emission was measured using a SpectraMax plate reader. […] The ability to lower the mitochondrial membrane potential of the test compounds and the cytotoxicity of the test compounds are given in Table 3 below.

For data set [3], the system named is B cells (CD20-positive CD3-negative cells) of human PBMC. Nature of the data set: B cell activation using human PBMC (CD69-positive signal, FACS). The class given is cell-based. The conditions noted are these: anti-IgM antibody 1 μg/mL / IL-4 3 ng/mL, 22 hours. Here is the method:
as §2, §3

Chain of Lck (P06239 whole entry): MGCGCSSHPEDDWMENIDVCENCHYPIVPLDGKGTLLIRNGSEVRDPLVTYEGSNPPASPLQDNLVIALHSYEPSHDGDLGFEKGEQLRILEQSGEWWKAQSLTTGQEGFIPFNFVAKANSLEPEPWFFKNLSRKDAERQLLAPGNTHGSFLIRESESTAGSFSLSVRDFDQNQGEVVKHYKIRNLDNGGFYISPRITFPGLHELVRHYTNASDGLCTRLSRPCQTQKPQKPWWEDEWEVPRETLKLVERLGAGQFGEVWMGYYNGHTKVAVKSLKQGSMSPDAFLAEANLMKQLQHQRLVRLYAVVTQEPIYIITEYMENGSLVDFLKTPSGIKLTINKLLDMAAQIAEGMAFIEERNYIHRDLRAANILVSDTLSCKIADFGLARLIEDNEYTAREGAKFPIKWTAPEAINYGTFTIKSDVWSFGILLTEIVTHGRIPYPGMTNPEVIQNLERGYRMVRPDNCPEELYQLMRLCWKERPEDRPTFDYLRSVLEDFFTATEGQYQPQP
Chain of Human CYP2C8 (P10632 whole entry): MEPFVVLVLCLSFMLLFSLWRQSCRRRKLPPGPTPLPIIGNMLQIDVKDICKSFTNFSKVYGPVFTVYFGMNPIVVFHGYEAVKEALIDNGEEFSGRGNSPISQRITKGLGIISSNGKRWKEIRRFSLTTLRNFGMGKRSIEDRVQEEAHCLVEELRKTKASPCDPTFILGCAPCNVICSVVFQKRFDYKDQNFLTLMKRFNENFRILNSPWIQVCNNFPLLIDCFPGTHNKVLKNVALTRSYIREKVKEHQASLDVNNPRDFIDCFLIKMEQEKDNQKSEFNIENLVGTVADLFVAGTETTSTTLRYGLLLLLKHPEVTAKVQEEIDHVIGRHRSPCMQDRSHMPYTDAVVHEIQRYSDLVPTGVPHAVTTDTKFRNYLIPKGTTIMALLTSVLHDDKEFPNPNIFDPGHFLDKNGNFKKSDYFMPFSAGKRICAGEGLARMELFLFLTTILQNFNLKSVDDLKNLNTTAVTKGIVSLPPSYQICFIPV

The term IC50 denotes the concentration at which inhibition is half-maximal. In the case of `C=CC(=O)N1CC(n2c(=O)n(-c3ccc(Oc4ccccc4)cc3)c3c(N)ncnc32)C1` [Example 8, 9-(1-acryloyl-3-azetidinyl)-6-amino-7-(4-phenoxyphenyl)-7,9-dihydro-8H-purin-8-one], on LynA, the “LynA[IC50]/Btk[IC50]” value was 459. Also, on Lck, the “Lck[IC50]/Btk[IC50]” value turned out to be 80. Moreover, the “Residual ratio (%) in the rat liver microsome” value in data set [1] was determined as 100%. Also, the IC50 was > 10 µM in data set [2], > 10 µM on Human CYP2C8, 324 µM with Human liver cells and 0.021 µM in data set [3]. For the same molecule, at Fyn, the “Fyn[IC50]/Btk[IC50]” value was determined as 453.
